Measured values taken from patent publication US20250093270A1, “Method for Detecting Enzyme Activity and Fluorescent Probe Used in Said Method” (priority 2022, published 2025).

Assays:
[1] = Microdevice compatibility: fluorescence image of a microdevice loaded with probe and reacted with a thiol (leakage to oil, adsorption to well); details: for leakage of the probe enclosed in the well of the microdevice to the oil: sealing oil; for adsorption to the microdevice (inner wall of the reaction vessel / well): reaction vessel formed of CYTOP
Experimental: (§1) An enzyme stock solution was diluted with an assay buffer containing a fluorescent probe. Next, 40 μL of a reaction mixture was added to the microdevice (Simoa disk; Quanterx Corporation). Next, 80 μL of FC-70 (Sigma-Aldrich) was introduced into the microdevice to wash off the excess reaction mixture and form W/O droplets. A fluorescence signal of the catalytically produced fluorescent dye was measured under a fluorescence microscope, and the enzyme activity in the chamber was measured.
(§2) Fluorescence images were acquired using a 20× dry objective (Plan Apo 20x), an sCMOS camera (ORCA-FusionC14440, Hamamatsu Photonics K.K.), a white LED lighting unit (X-Cite Xylis, Opto Science, Inc.), and a fluorescence microscope (Ti2, Nikon Corporation) equipped with a motorized stage. In the analysis, measurement was performed using a solution containing sSiR (10 μM) as an internal standard and the focus was adjusted using fluorescence. Images were acquired in tile scan mode at full focus.
FIG. 5(a) illustrates a photograph of a state in which each of three kinds of probes containing 2- and 6-position unsubstituted BODIPY and GSH are supplemented with octanol and water. FIG. 5(b) illustrates a fluorescence image of a microdevice equipped with a probe and reacted with a thiol.
FIG. 5(d) illustrates fluorescence images of a microdevice containing human plasma that was loaded with a fluorescent probe (30 μM) in HEPES-buffer (10 mM, pH 7.4, containing 0.1% CHAPS) and incubated at 37° C. for 1.5 hours.
FIG. 7(a) illustrates a photograph (water-octanol distribution experiment) of a state in which each probe and GSH are supplemented with octanol and water. FIG. 7(b) illustrates a fluorescence image of a microdevice equipped with a probe and reacted with a thiol.
(§3) The image was acquired after incubation at 25° C. for 30 minutes.

[2] = Water-octanol distribution experiment (probe and GSH supplemented with octanol and water); format: physicochemical; details: for distribution to octanol (lipid-soluble solvent) side: water-octanol, with GSH
[3] = test system: acetylcholinesterase; assay: Acetylthiocholine coupled assay in a microdevice with the nitrophenol-type probe; format: biochemical; details: probe 1 μM, acetylthiocholine iodide 1 mM, human plasma 1,000-fold dilution, 90 minutes at 37° C.
Experimental: The images were acquired after 90 minutes at 37° C.

[4] = Comparison of water solubility by difference in elution time of LC-MS (C18); format: physicochemical; details: C18, ammonium formate/acetonitrile gradient
Experimental: FIG. 10 illustrates the analysis of a mixture of five compounds by LC-MS and the extracted ion chromatogram of each compound shown with the display color. The results of the diphosphonic acid form, the dicarboxylic acid form, the disulfonic acid form, the monosulfonic acid form, and the monocarboxylic acid form are shown from the left.
The compound was eluted with a linear gradient of A/B=100/0 at 0.5 minutes and 100/0 to 0/100 at 3 minutes detected at 500 nm (eluent A: H2O containing 10 mM ammonium formate; eluent B: acetonitrile 80%, H2O 20% containing 10 mM ammonium formate).

[5] = test system: cholinesterase (ChE); details: blood diluted to 1/10,000; corresponding to a total enzyme concentration of 1 pM
Experimental: as §1, §2
FIG. 5(c) illustrates a schematic diagram of a coupled assay of an acetylthiocholine system for detection of cholinesterase (ChE) activity.
as §3
The upper view is a fluorescence image of a microdevice equipped with a probe (30 μM), acetylthiocholine (1 mM), and a 1/10,000-fold diluted plasma sample of a healthy human subject. […]

| Compound | leakage of the probe enclosed in the well of the microdevice to the oil [1] | adsorption to the microdevice (inner wall of the reaction vessel / well) [1] | also measured |
| --- | --- | --- | --- |
| 2,6-sulfo-nitroolefin BODIPY [compound 2] | suppressed | not observed |  |
| 2-CO2H Nitroolefin BODIPY [compound 4] |  | the same result as in Example 1 | lipid solubility [2]: particularly highly lipid-soluble; distribution to octanol (lipid-soluble solvent) side [2]: a large amount of the monocarboxylic acid form was distributed to octanol |
| 2,6-diCO2H Nitroolefin BODIPY [compound 9] |  | the same result as in Example 1 | distribution to octanol (lipid-soluble solvent) side [2]: partially observed |
| COc1cc(OC)c(C2=C3C=CC(=O)C=C3[Si](C)(C)c3cc(Oc4ccc(C)cc4[N+](=O)[O-])ccc32)cc1C [2.4-dinitro sTM] |  |  | detection of acetylcholinesterase activity in blood [3]: detected |
| 8-(p-nitroolefin)-BODIPY [2- and 6-position unsubstituted BODIPY, reference compound] | dissolved in oil |  | lipid solubility [2]: high lipid solubility |
| 2-sulfo-nitroolefin BODIPY [compound 1] | suppressed | adsorption of the probe to the inner wall of the reaction vessel |  |
| 2,6-diPO3H2 Nitroolefin BODIPY [compound 17] |  | no adsorption to the microdevice was observed | water solubility ([1]; inferred from behaviour in the microdevice): high water solubility; water solubility evaluated by elution time of LC-MS [4]: greatly improved; λ [5]: 0.03 |
